Reference: PubChem BioAssay (NCI)
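Growth conditions: 96-well plates. Treatment: test compound, 48 hours, 5 concentrations. Analysis: linear interpolation between bracketing concentrations; unreached endpoints set to highest concentration. GI50 = concentration required for 50% inhibition of growth. TGI: concentration producing complete growth inhibition.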

Key:
Assay in all cases: DTP human tumour cell line panel, 48 h
OVCAR-5 ovarian = test system: OVCAR-5 ovarian
LOX IMVI melanoma = test system: LOX IMVI melanoma
HS 578T breast = test system: HS 578T breast
U251 CNS = test system: U251 CNS
MCF7 breast = test system: MCF7 breast
NCI-H226 lung = test system: NCI-H226 lung
SW-620 colon = test system: SW-620 colon
MDA-MB-231 breast = test system: MDA-MB-231 breast
TK-10 renal = test system: TK-10 renal
NCI-H23 lung = test system: NCI-H23 lung
SF-539 CNS = test system: SF-539 CNS
MALME-3M melanoma = test system: MALME-3M melanoma
786-0 renal = test system: 786-0 renal
COLO 205 colon = test system: COLO 205 colon
T-47D breast = test system: T-47D breast
A498 renal = test system: A498 renal
ACHN renal = test system: ACHN renal
OVCAR-4 ovarian = test system: OVCAR-4 ovarian
HCT-116 colon = test system: HCT-116 colon
SK-MEL-5 melanoma = test system: SK-MEL-5 melanoma
BT-549 breast = test system: BT-549 breast
UACC-257 melanoma = test system: UACC-257 melanoma
SK-MEL-28 melanoma = test system: SK-MEL-28 melanoma
MOLT-4 leukemia = test system: MOLT-4 leukemia
DU-145 prostate = test system: DU-145 prostate
K-562 leukemia = test system: K-562 leukemia
A549 NSCLC = test system: A549 NSCLC
OVCAR-3 ovarian = test system: OVCAR-3 ovarian
OVCAR-8 ovarian = test system: OVCAR-8 ovarian
M14 melanoma = test system: M14 melanoma
HCC-2998 colon = test system: HCC-2998 colon
UO-31 renal = test system: UO-31 renal
NCI-H460 lung = test system: NCI-H460 lung
HL-60(TB) leukemia = test system: HL-60(TB) leukemia
MDA-MB-435 = test system: MDA-MB-435
CAKI-1 renal = test system: CAKI-1 renal
HOP-92 NSCLC = test system: HOP-92 NSCLC
SN12C renal = test system: SN12C renal
EKVX NSCLC = test system: EKVX NSCLC
SNB-19 CNS = test system: SNB-19 CNS
SF-268 CNS = test system: SF-268 CNS
SNB-75 CNS = test system: SNB-75 CNS
HT29 colon = test system: HT29 colon
NCI-H522 lung = test system: NCI-H522 lung
KM12 colon = test system: KM12 colon
RPMI-8226 leukemia = test system: RPMI-8226 leukemia
SK-OV-3 ovarian = test system: SK-OV-3 ovarian
NCI/ADR-RES ovarian = test system: NCI/ADR-RES ovarian
HOP-62 NSCLC = test system: HOP-62 NSCLC
CCRF-CEM leukemia = test system: CCRF-CEM leukemia
HCT-15 colon = test system: HCT-15 colon
SR leukemia = test system: SR leukemia
UACC-62 melanoma = test system: UACC-62 melanoma

## Cc1cnc(NC(=O)C(Cc2ccccc2)NC(=O)c2ccccc2)s1 (stereo unspecified)
OVCAR-5 ovarian
  GI50: 25.3 µM
  TGI: 63.7 µM
LOX IMVI melanoma
  GI50: 6.25 µM
  TGI: 19.3 µM
HS 578T breast
  GI50: 6.69 µM
  TGI: 35.3 µM
U251 CNS
  GI50: 5.25 µM
  TGI: 19.3 µM
MCF7 breast
  GI50: 1.55 µM
  TGI: 5.12 µM
NCI-H226 lung
  GI50: 2.04 µM
  TGI: 7.05 µM
SW-620 colon
  GI50: 14 µM
  TGI: 30.6 µM
MDA-MB-231 breast
  GI50: 6.42 µM
  TGI: 27.1 µM
TK-10 renal
  GI50: 10.2 µM
  TGI: 30.7 µM
NCI-H23 lung
  GI50: 3.83 µM
  TGI: 23.8 µM
SF-539 CNS
  GI50: 14.2 µM
  TGI: 31.1 µM
MALME-3M melanoma
  GI50: 24.2 µM
  TGI: > 100 µM
786-0 renal
  GI50: 15.1 µM
  TGI: 76.2 µM
COLO 205 colon
  GI50: 13.5 µM
  TGI: 29.5 µM
T-47D breast
  GI50: 23.1 µM
  TGI: 82.6 µM
A498 renal
  GI50: 31.1 µM
  TGI: > 100 µM
ACHN renal
  GI50: 3.49 µM
  TGI: 16.9 µM
OVCAR-4 ovarian
  GI50: 16.3 µM
  TGI: > 100 µM
HCT-116 colon
  GI50: 2.96 µM
  TGI: 11.9 µM
SK-MEL-5 melanoma
  GI50: 1.69 µM
  TGI: 3.85 µM
BT-549 breast
  GI50: 29.1 µM
  TGI: > 100 µM
UACC-257 melanoma
  GI50: 1.14 µM
  TGI: 3.16 µM
SK-MEL-28 melanoma
  GI50: 19.8 µM
  TGI: 49.9 µM
MOLT-4 leukemia
  GI50: 24.1 µM
  TGI: 95.4 µM
DU-145 prostate
  GI50: 21.4 µM
  TGI: 47 µM
K-562 leukemia
  GI50: 37.2 µM
  TGI: > 100 µM
A549 NSCLC
  GI50: 3.32 µM
  TGI: 15.8 µM
OVCAR-3 ovarian
  GI50: 11.3 µM
  TGI: 25.8 µM
OVCAR-8 ovarian
  GI50: 2.38 µM
  TGI: 9.16 µM
M14 melanoma
  GI50: 1.75 µM
  TGI: 3.95 µM
HCC-2998 colon
  GI50: 1.83 µM
  TGI: 5 µM
UO-31 renal
  GI50: 3.98 µM
  TGI: 18.9 µM
NCI-H460 lung
  GI50: 3.54 µM
  TGI: 13.8 µM
HL-60(TB) leukemia
  GI50: 21.2 µM
  TGI: 51.5 µM
MDA-MB-435
  GI50: 3.02 µM
  TGI: 15.6 µM
CAKI-1 renal
  GI50: 33 µM
  TGI: > 100 µM
HOP-92 NSCLC
  GI50: 29.9 µM
  TGI: > 100 µM
SN12C renal
  GI50: 3.05 µM
  TGI: 17.5 µM
EKVX NSCLC
  GI50: 19.5 µM
  TGI: 47.6 µM
SNB-19 CNS
  GI50: 19 µM
  TGI: 48.6 µM
SF-268 CNS
  GI50: 23.2 µM
  TGI: 54.7 µM
SNB-75 CNS
  GI50: 6.53 µM
  TGI: 27.7 µM
HT29 colon
  GI50: 26 µM
  TGI: > 100 µM
NCI-H522 lung
  GI50: 1.53 µM
  TGI: 21.8 µM
KM12 colon
  GI50: 3.82 µM
  TGI: 14.7 µM
RPMI-8226 leukemia
  GI50: 2.7 µM
  TGI: 9.04 µM
SK-OV-3 ovarian
  GI50: 22.9 µM
  TGI: 71.6 µM
NCI/ADR-RES ovarian
  GI50: 4.49 µM
  TGI: 69.2 µM
HOP-62 NSCLC
  GI50: 10 µM
  TGI: 28 µM
CCRF-CEM leukemia
  GI50: 34.7 µM
  TGI: > 100 µM
HCT-15 colon
  GI50: 2.63 µM
  TGI: 8.9 µM
SR leukemia
  GI50: 2.78 µM
  TGI: 26.6 µM
UACC-62 melanoma
  GI50: 1.45 µM
  TGI: 3.7 µM
